This assay deals with T1, human membrane progestin receptor α (hmPRα) (Homo sapiens, UniProt Q86WK9).
T1 construct: gene PAQR7; DDM-solubilized and purified over Ni-NTA, Cellufine Amino and SP-Sepharose; ~50 kDa band, theoretical 52 kDa with signal
T1 sequence (Q86WK9 1-346): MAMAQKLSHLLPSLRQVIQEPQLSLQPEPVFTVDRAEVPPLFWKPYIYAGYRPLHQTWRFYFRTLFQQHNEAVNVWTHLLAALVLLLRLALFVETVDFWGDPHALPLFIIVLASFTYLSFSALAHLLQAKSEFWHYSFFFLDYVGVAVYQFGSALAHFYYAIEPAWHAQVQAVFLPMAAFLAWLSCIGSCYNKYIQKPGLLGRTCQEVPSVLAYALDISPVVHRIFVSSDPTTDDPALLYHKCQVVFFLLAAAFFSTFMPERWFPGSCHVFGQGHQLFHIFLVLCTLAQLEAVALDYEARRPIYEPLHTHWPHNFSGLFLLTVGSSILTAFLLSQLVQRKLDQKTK
Description: radioligand saturation filter binding, Scatchard analysis.

In general, Kd refers to the free concentration of one partner at which half of the binding sites on the other are occupied at equilibrium, for simple one-to-one binding. Higher therefore signals lower affinity. The compound `CC(=O)[C@H]1CC[C@H]2[C@@H]3CCC4=CC(=O)CC[C@]4(C)[C@H]3CC[C@]12C` [progesterone] yielded a dissociation constant Kd of 5.2 nM.

(Values after article PMC4580469, “Expression and Purification of Human Membrane Progestin Receptor α (mPRα)” (PLoS ONE, 2015).)
